“Also recorded” adds a separate entry of the source. Ends that are not written are not given here.
What was measured:
FABP4 = FABP4 ELISA on liver extracts; type: in vivo; details: 3 months after single injection, DIO male mice
Description: LOXL2 is the enzyme promoting the development of fibrotic lesions by favoring the polymerization of collagen and FABP4 is a protein involved in lipid metabolism whose level increases with increasing lipid deposition in the liver.
For the measurements on the liver extracts, the same kit for LOXL2 was used and for FABP4, the commercial kit used was the Elisa kit for Fatty Acid Binding Protein 4, Adipocyte (FABP4), SEB693Mu, Cloud Clone Corp.

ceramides = assay: Hepatic ceramides content and profile (lipidomics); type: in vivo, mice; details: 3 injections, one per week, in subcutaneous adipose tissue
Description: ADPIF adipose tissue injection has proven to be unexpectedly liver protective relative to a specific decrease in expression levels of FATP2 in the adipose tissue and an associated profile of the FATPs and FFARs in the muscles and liver. As these changes impact circulating population of the different lipids. Ceramides are a group of biological active lipids known to be involved in NAFLD. We measured and determined the effect of ADPIF injections on the ceramides profile following 3 injections of ADPIF at a frequency of one injection per week in the subcutaneous adipose tissue.
(§1) For the lipid composition in the different tissues and plasma, all samples were flashed frozen at the time of sampling, immediately after sacrifice, and were sent to the lipidomic core facility of Dijon, (Plateforme de Lipidomique-uBorgogne INSERM UMR866/Labex LipSTIC).

[1] = system: fatty acid synthase (Fasn); assay: Hepatic expression of de novo lipogenesis gene Fasn (q-PCR); type: in vivo; details: 11 days post injection in the adipose tissue; DIO male mice; vs control
Description: AdipoRed Staining of Liver Sections

[2] = system: lysophosphatidylcholines (LPCs); assay: Lysophosphatidylcholines (LPC) lipid content in pancreas, adipose tissue, liver and plasma; type: in vivo, mice; details: 25 μg per mouse subcutaneous
Description: as §1

VECTTREKEVLASLDKAAFLTQLHS (not fully specified (bridges)) [ADPIF, R and S carry the stapling, preferably 2-(7-octenyl)arginine and 2-(4-pentenyl)serine]
hepatic protein content of FABP4 (FABP4): more potent than PATAD; also recorded: significantly reduced
hepatic ceramides content (ceramides): globally induces a decrease
hepatic expression level of fatty acid synthase (Fasn) [1]: repressed; also recorded: significantly decreased
level of LPC 18:2 ([2]; adipose tissue and liver): most prominent reduction; also recorded: mostly reduced
levels of lysophosphatidylcholines (LPCs) in the tissues analyzed ([2]; adipose tissue, liver, plasma, euthanized 1 week after last injection): effective in reducing selective LPCS; also recorded: selective decrease of certain LPCs

From patent publication US12540164B2, “Peptides for treatment and prevention of nonalcoholic fatty liver disease and fibrosis” (UNIVERSITE DE STRASBOURG, priority 2017, dated 2026)
